Structures can show the parent of a compound that is named as a salt.

The conditions of data set [1]: known, in words; cited from earlier work.
The conditions of data set [2]: said to be exhibited due to side effects; cited from earlier work.
For data set [3] the following is noted: known, in words; cited from earlier work. This is another data set of the same source.
Data set [4] in a line: Toxicity test (LD50, intraperitoneal, mice). Type of data set: in vivo, mouse. The settings on record: mouse, in vivo, ip, dd-strain male mice, 18 to 21 g, 3 weeks observation, Probit analysis. The protocol: (§1) Toxicity test: The compound being tested is suspended in physiological saline in varied concentrations by the serial dilution method (common ratio, 1:1.5). Each solution was administered intraperitoneally to groups of 8 to 12 dd-strain male mice, each 18 to 21 g in body weight. The mice were then bred on a usual diet and water. The LD50 value was determined by Probit analysis by observing dead and alive for 3 weeks after the administration.

Data set [5] deals with dd-strain male mice. Description: Toxicity test (LD50, intraperitoneal, mice). Type of data set: in vivo, mouse. To be noted: 18 to 21 g, 3 weeks observation, Probit analysis, 30240 min. As to the method: as §1

`COC1Nc2c(ccc(C)c2O)C(=O)N2C=C(/C=C/C(N)=O)CC12` (single isomer, unassigned) [P"B"A"]: the antibacterial activity entry in data set [1] is “antibacterial and antitumor activities are exhibited”. Also, the “toxicity, particularly cardiotoxicity” value in data set [2] is given as “strong toxicity, particularly cardiotoxicity”. Besides, in data set [3], the antitumor activity result is listed as “very strong antitumor activity”.

By LD50 is commonly meant the dose expected to kill half of the subjects tested. Turning to `Cc1ccc2c(c1O)NC(O)C1CC(/C=C/C(N)=O)=CN1C2=O` (single isomer, unassigned) [PBA, 5,10,11,11a-tetrahydro-9,11-dihydroxy-8-methyl-5-oxo-1H-pyrrolo[2,1-c][1,4]-benzodiazepin-2-acrylamide], the antibacterial activity entry in data set [1] was “antibacterial and antitumor activities are exhibited”. Moreover, the LD50 at 504 h in data set [4] turned out to be 0.73 mg/kg. Moreover, the “toxicity, particularly cardiotoxicity” value in data set [2] is recorded as “strong toxicity, particularly cardiotoxicity”. In addition, the antitumor activity result in data set [3] is recorded as “very strong antitumor activity”. Consider `Cc1ccc2c(c1O)N=CC1CC(/C=C/C(N)=O)=CN1C2=O` (stereo not shown) [P'B'A', 5,11,11a-trihydro-9-hydroxy-8-methyl-5-oxo-1H-pyrrolo-[2,1-c][1,4]benzodiazepin-2-acrylamide], for which the antibacterial activity entry in data set [1] was “antibacterial and antitumor activities are exhibited”. In addition, in data set [2], the “toxicity, particularly cardiotoxicity” value is listed as “strong toxicity, particularly cardiotoxicity”. In data set [3], the antitumor activity entry is recorded as “very strong antitumor activity”. Take `CC(=O)Oc1c(C)ccc2c1N(C(C)=O)C(S(=O)O)C1CC(/C=C/C(N)=O)=CN1C2=O` (stereo not shown) [R1=COCH3, R2=COCH3, R3=SO2 H, 5,10,11,11a-tetrahydro-9-acetoxy-10-acetyl-8-methyl-5-oxo-11-sulfino-1H-pyrrolo-[2,1-c][1,4]benzodiazepin-2-acrylamide]: in data set [5], the LD50 is on record as 2.62 mg/kg.

As to `CC(=O)Oc1c(C)ccc2c1N(C(C)=O)C(S(=O)O)C1CC(/C=C/C(N)=O)=CN1C2=O` (stereo not shown) [R1=COCH3, R2=COCH3, R3=SO2 Na], the LD50 at 504 h in data set [4] came to 2.71 mg/kg. In data set [5], `CC(=O)Oc1c(C)ccc2c1N(C(C)=O)C(S(=O)(=O)O)C1CC(/C=C/C(N)=O)=CN1C2=O` (stereo not shown) [R1=COCH3, R2=COCH3, R3=SO3 H, 5,10,11,11a-Tetrahydro-9-acetoxy-10-acetyl-8-methyl-5-oxo-11-sulfo-1H-pyrrolo[2,1-c][1,4]benzodiazepin-2-acrylamide] registered an LD50 of 2.81 mg/kg. Take `CC(=O)Oc1c(C)ccc2c1N(C(C)=O)C(S(=O)(=O)O)C1CC(/C=C/C(N)=O)=CN1C2=O` (stereo not shown) [R1=COCH3, R2=COCH3, R3=SO3 Na]: the median lethal dose (LD50) at 504 h in data set [4] came to 3.04 mg/kg. Take `CC(=O)Oc1c(C)ccc2c1NC(S(=O)O)C1CC(/C=C/C(N)=O)=CN1C2=O` (stereo not shown) [R1=COCH3, R2=H, R3=SO2 H, 5,10,11,11a-Tetrahydro-9-acetoxy-8-methyl-5-oxo-11-sulfino-1H-pyrrolo[2,1-c][1,4]benzodiazepin-2-acrylamide]: the LD50 at 504 h in data set [4] worked out at 2.54 mg/kg. `CC(=O)Oc1c(C)ccc2c1NC(S(=O)O)C1CC(/C=C/C(N)=O)=CN1C2=O` (stereo not shown) [R1=COCH3, R2=H, R3=SO2 Na, 5,10,11,11a-tetrahydro-9-acetoxy-8-methyl-5-oxo-11-sulfino-1H-pyrrolo[2,1-c][1,4]benzodiazepin-2-acrylamide sodium salt]: in data set [5] (sodium salt), the LD50 was determined as 2.60 mg/kg. Turning to `CC(=O)Oc1c(C)ccc2c1NC(S(=O)(=O)O)C1CC(/C=C/C(N)=O)=CN1C2=O` (stereo not shown) [R1=COCH3, R2=H, R3=SO3 H, 5,10,11,11a-tetrahydro-9-acetoxy-8-methyl-5-oxo-11-sulfo-1H-pyrrolo[2,1-c][1,4]benzodiazepin-2-acrylamide], the LD50 at 504 h in data set [4] is 2.68 mg/kg. On the same count and under the same terms, with `CC(=O)N1c2c(ccc(C)c2OC(N)=O)C(=O)N2C=C(/C=C/C(N)=O)CC2C1S(=O)O` (stereo not shown) [R1=CONH2, R2=COCH3, R3=SO2 H, 5,10,11,11a-tetrahydro-10-acetyl-9-carbamyloxy-8-methyl-5-oxo-11-sulfino-1H-pyrrolo[2,1-c][1,4]benzodiazepin-2-acrylamide] the figure was 2.84 mg/kg; with `CC(=O)N1c2c(ccc(C)c2OC(N)=O)C(=O)N2C=C(/C=C/C(N)=O)CC2C1S(=O)(=O)O` (stereo not shown) [R1=CONH2, R2=COCH3, R3=SO3 H, 5,10,11,11a-Tetrahydro-10-acetyl-9-carbamyloxy-8-methyl-5-oxo-11-sulfo-1H-pyrrolo[2,1-c][1,4]benzodiazepin-2-acrylamide], 2.8 mg/kg. In data set [4], `Cc1ccc2c(c1OC(N)=O)NC(S(=O)O)C1CC(/C=C/C(N)=O)=CN1C2=O` (stereo not shown) [R1=CONH2, R2=H, R3=SO2 H, 5,10,11,11a-Tetrahydro-9-carbamyloxy-8-methyl-5-oxo-11-sulfino-1H-pyrrolo[2,1-c][1,4]benzodiazepin-2-acrylamide] registered an LD50 at 504 h of 2.37 mg/kg. Molecule `Cc1ccc2c(c1OC(N)=O)NC(S(=O)(=O)O)C1CC(/C=C/C(N)=O)=CN1C2=O` (stereo not shown) [R1=CONH2, R2=H, R3=SO3 H, 5,10,11,11a-Tetrahydro-9-carbamyloxy-8-methyl-5-oxo-11-sulfo-1H-pyrrolo[2,1-c][1,4]benzodiazepin-2-acrylamide] came in with an LD50 at 504 h in data set [4] of 2.4 mg/kg. Still for that read-out and setting: with `COC(=O)Oc1c(C)ccc2c1NC(S(=O)O)C1CC(/C=C/C(N)=O)=CN1C2=O` (stereo not shown) [R1=COOCH3, R2=H, R3=SO2 H] the figure was 2.56 mg/kg; with `COC(=O)Oc1c(C)ccc2c1NC(S(=O)(=O)O)C1CC(/C=C/C(N)=O)=CN1C2=O` (stereo not shown) [R1=COOCH3, R2=H, R3=SO3 H, 5,10,11,11a-tetrahydro-8-methyl-9-methoxycarbonyloxy-5-oxo-11-sulfo-1H-pyrrolo[2,1-c][1,4]-benzodiazepin-2-acrylamide], 2.55 mg/kg.

The molecule `CC(=O)N1c2c(ccc(C)c2O)C(=O)N2C=C(/C=C/C(N)=O)CC2C1S(=O)O` (stereo not shown) [R1=H, R2=COCH3, R3=SO2 H, 5,10,11,11a-tetrahydro-10-acetyl-9-hydroxy-8-methyl-5-oxo-11-sulfino-1H-pyrrolo-[2,1-c][1,4]benzodiazepin-2-acrylamide] came in with an LD50 at 504 h in data set [4] of 2.5 mg/kg.

In data set [5], `CC(=O)N1c2c(ccc(C)c2O)C(=O)N2C=C(/C=C/C(N)=O)CC2C1S(=O)(=O)O` (stereo not shown) [R1=H, R2=COCH3, R3=SO3 H, 5,10,11,11a-Tetrahydro-10-acetyl-9-hydroxy-8-methyl-5-oxo-11-sulfo-1H-pyrrolo[2,1-c][1,4]benzodiazepin-2-acrylamine] displayed an LD50 of 2.43 mg/kg.

For the molecule `CC(=O)N1c2c(ccc(C)c2O)C(=O)N2C=C(/C=C/C(N)=O)CC2C1S(=O)(=O)O` (stereo not shown) [R1=H, R2=COCH3, R3=SO3 Na, 5,10,11,11a-tetrahydro-10-acetyl-9-hydroxy-8-methyl-5-oxo-11-sulfo-1H-pyrrolo[2,1-c][1,4]benzodiazepin-2-acrylamide sodium salt], the LD50 at 504 h in data set [4] worked out at 2.51 mg/kg. Regarding `Cc1ccc2c(c1O)NC(S(=O)O)C1CC(/C=C/C(N)=O)=CN1C2=O` (stereo not shown) [R1=H, R2=H, R3=SO2 H, 5,10,11,11a-tetrahydro-9-hydroxy-8-methyl-5-oxo-11-sulfino-1H-pyrrolo[2,1-c][1,4]-benzodiazepin-2-acrylamide], the LD50 at 504 h in data set [4] was 2.18 mg/kg. On to `Cc1ccc2c(c1O)NC(S(=O)O)C1CC(/C=C/C(N)=O)=CN1C2=O` (stereo not shown) [R1=H, R2=H, R3=SO2 K], for which, in data set [5], the LD50 came to 2.31 mg/kg. On to `Cc1ccc2c(c1O)NC(S(=O)O)C1CC(/C=C/C(N)=O)=CN1C2=O` (stereo not shown) [R1=H, R2=H, R3=SO2 Na], for which, in data set [5], the 50% lethal dose (LD50) was determined as 2.28 mg/kg. In data set [4], `Cc1ccc2c(c1O)NC(S(=O)(=O)O)C1CC(/C=C/C(N)=O)=CN1C2=O` (stereo not shown) [R1=H, R2=H, R3=SO3 H, 5,10,11,11a-Tetrahydro-9-hydroxy-8-methyl-5-oxo-11-sulfo-1H-pyrrolo[2,1-c][1,4]benzodiazepin-2-acrylamide] had an LD50 at 504 h of 2.21 mg/kg. In turn, `Cc1ccc2c(c1O)NC(S(=O)(=O)O)C1CC(/C=C/C(N)=O)=CN1C2=O` (stereo not shown) [R1=H, R2=H, R3=SO3 Na] came in with an LD50 in data set [5] of 2.31 mg/kg.

Source of the values: US4309437A, “Pyrrolo-benzodiazepine compounds and anti-tumor composition thereof” (priority 1979, dated 1982).
